{"source": "patent US20170211012A1", "about": "“METHOD OF […] FROM MICROBES” (priority 2014, published 2017)", "test_system": "Vibrio cholerae", "experiment": "Colistin MIC against Vibrio cholerae strains", "assay_type": "cell-based", "note": "“And” between values parts separate entries of the source, which are not always exact repeats. Identical values can stand only once.", "data": [{"substance": "colistin", "values": [{"measurement": "Colistin MIC", "setting": "V. cholerae strain 32-14, O antigen not given", "value": ">250", "unit": "µg/mL"}, {"measurement": "Colistin MIC", "setting": "V. cholerae strain 33-36, O antigen O-1", "value": ">250", "unit": "µg/mL"}, {"measurement": "Colistin MIC", "setting": "V. cholerae strain 35-44, O antigen O-1", "value": ">250", "unit": "µg/mL"}, {"measurement": "Colistin MIC", "setting": "V. cholerae strain 50-1, O antigen O-1", "value": "4 µg/mL and 8 µg/mL"}, {"measurement": "Colistin MIC", "setting": "V. cholerae strain 51-2, O antigen O-1", "value": 4, "unit": "µg/mL"}, {"measurement": "Colistin MIC", "setting": "V. cholerae strain 52-4, O antigen O-1", "value": 4, "unit": "µg/mL"}, {"measurement": "Colistin MIC", "setting": "V. cholerae strain 57-11, O antigen O-139", "value": 4, "unit": "µg/mL"}, {"measurement": "Colistin MIC", "setting": "V. cholerae strain 58-12, O antigen O-1", "value": 125, "unit": "µg/mL"}, {"measurement": "Colistin MIC", "setting": "V. cholerae strain 79-35, O antigen O-1", "value": ">250", "unit": "µg/mL"}, {"measurement": "Colistin MIC", "setting": "V. cholerae strain 114/98931, O antigen O-1", "value": 125, "unit": "µg/mL"}, {"measurement": "Colistin MIC", "setting": "V. cholerae strain 461/99053, O antigen O-1", "value": ">250", "unit": "µg/mL"}, {"measurement": "Colistin MIC", "setting": "V. cholerae strain 781, O antigen O-1", "value": ">250", "unit": "µg/mL"}, {"measurement": "Colistin MIC", "setting": "V. cholerae strain 1837, O antigen O-139", "value": ">250", "unit": "µg/mL"}, {"measurement": "Colistin MIC", "setting": "V. cholerae strain FMU-089933, O antigen O-139", "value": 31.5, "unit": "µg/mL"}, {"measurement": "Colistin MIC", "setting": "V. cholerae strain M-702-3, O antigen O-1", "value": ">250", "unit": "µg/mL"}, {"measurement": "Colistin MIC", "setting": "V. cholerae strain N16117, O antigen O-1", "value": ">250", "unit": "µg/mL"}, {"measurement": "Colistin MIC", "setting": "V. cholerae strain N16861, O antigen O-1", "value": ">250", "unit": "µg/mL"}, {"measurement": "Colistin MIC", "setting": "V. cholerae strain NG288/36, O antigen O-139", "value": ">250", "unit": "µg/mL"}, {"measurement": "Colistin MIC", "setting": "V. cholerae strain NG368/36, O antigen O-139", "value": ">250", "unit": "µg/mL"}, {"measurement": "Colistin MIC", "setting": "V. cholerae strain NRU-20455, O antigen O-139", "value": 8, "unit": "µg/mL"}, {"measurement": "Colistin MIC", "setting": "V. cholerae strain NRU-20461, O antigen O-139", "value": "8 µg/mL and 4 µg/mL"}, {"measurement": "Colistin MIC", "setting": "V. cholerae strain O-139 Argentina, O antigen O-139", "value": ">250", "unit": "µg/mL"}]}]}
